Measurements reported in patent publication US20220184222A1, “BICYCLE TOXIN CONJUGATES AND USES THEREOF” (BicycleTx Limited, priority 2019, published 2022).
Starred links: 1 amine or outer side, 2 acyl side, 3 side chain; linkers in the order of their positions; H or OH if unused. Non-standard residues stand in square brackets, D forms with d. Residues, ends and D or L forms follow the SMILES beside them. *: point of attachment. Dolaproine = CO[C@@H]([C@@H]1CCCN1)[C@@H](C)C(=O)O; Dil = CC[C@H](C)[C@H](NC)[C@@H](CC(=O)O)OC; PABC = O=C(OCc1ccc(N[*:1])cc1)[*:2]; X1 = O=C(CCCC(=O)*)ON1C(=O)CCC1=O; X2 = C[C@@H](N*)[C@@H](O)c1ccccc1; Cit = NC(=O)NCCC[C@H](N)C(=O)O; NMeV = CN[C@H](C(=O)O)C(C)C

Experiments:
PC-3 xenograft = experiment: In vivo efficacy in PC-3 xenograft, male Balb/c nude mice (Example 3); parameters: species or system Mus Musculus
Description: The objective of the research is to evaluate the in vivo anti-tumor efficacy of test articles in treatment of PC-3 xenograft in Balb/c nude mice.
The tumor cells were maintained in F-12K medium supplemented with 10% heat inactivated fetal bovine serum at 37° C. in an atmosphere of 5% CO2 in air. The tumor cells were routinely subcultured twice weekly. The cells growing in an exponential growth phase were harvested and counted for tumor inoculation.
Each mouse was inoculated subcutaneously at the right flank with PC-3 tumor cells (10×10^6) in 0.2 ml of PBS for tumor development. 52 animals were randomized when the average tumor volume reached 454 mm^3. The test article administration and the animal numbers in each group were shown in the experimental design table.
The major endpoint was to see if the tumor growth could be delayed or mice could be cured. Tumor volume was measured three times weekly in two dimensions using a caliper, and the volume was expressed in mm3 using the formula: V=0.5 a×b^2 where a and b are the long and short diameters of the tumor, respectively. The tumor size was then used for calculations of T/C value. The T/C value (in percent) is an indication of antitumor effectiveness; T and C are the mean volumes of the treated and control groups, respectively, on a given day.
TGI was calculated for each group using the formula: TGI (%)=[1−(Ti−T0)/(Vi−V0)]×100; Ti is the average tumor volume of a treatment group on a given day, T0 is the average tumor volume of the treatment group on the day of treatment start, Vi is the average tumor volume of the vehicle control group on the same day with Ti, and V0 is the average tumor volume of the vehicle group on the day of treatment start.
Tumor growth inhibition rate for test articles in the PC-3 xenograft model was calculated based on tumor volume measurements at day 20 after the start of the treatment.

CTG-0363 = experiment: Champions TumorGraft NSCLC PDX efficacy, model CTG-0363; assay type: in vivo, Mus musculus
Description: Mice were implanted subcutaneously into the left flank with tumor fragments from one of the various models. After tumors grew to an average of 150-300 mm^3, mice were treated by IV administration Q7Dx4 (n=2) with vehicle or 3 mg/kg of BT5528. Effects on tumor growth were evaluated by measuring percent tumor growth inhibition (% TGI), and the number of complete responders (CR), partial responders (PR), and tumor-free survivors (TFS). Tolerability was assessed by body weight loss, lethality, and clinical signs of adverse treatment-related side effects. Tumor volumes and body weights were measured twice a week.
Dosing solutions of BT5528 […] were pre-formulated. These dosing solutions were stored at −80° C. in the dark. On each day of dosing, a frozen aliquot of each test agent was thawed, stored at 2-8° C. and used for dosing.
The animals used in this study are described below: • Species: Mus musculus • Strain: Athymic Nude-Foxn1^nu (immune-compromised) • Source: Envigo (Indianapolis, Ind., USA) • Number of animals per group: 2 • Age and sex: At least 6-8 weeks of age at start of dosing, female • Weight: At least 18 grams at start of dosing • Acclimation period: 3 days
Stock mice were implanted with tumor cells from Champions TumorGraft® models CTG-0160, CTG-0170, CTG-0178, CTG-0192, CTG-0363, CTG-0808, CTG-0838, CTG-0848, CTG-1212, CTG-1502, CTG-1535, CTG-2011, CTG-2393, CTG-2539 or CTG-2540. After the tumors reached 1000-1500 mm^3, they were harvested and the tumor fragments (approximately 5×5×5 mm^3) were implanted SC in the left flank of the female study mice. Each animal was implanted with a specific passage lot and documented. Tumor growth was monitored twice a week using digital calipers and the tumor volume (TV) was calculated using the formula (0.52×[length×width^2]). When the TV reached an average volume of 150-300 mm^3, animals were matched by tumor size and assigned into Vehicle Control and treatment groups (n=2/group) and dosing was initiated on Day 0. After the initiation of dosing on Day 0, animals were weighed twice per week using a digital scale and TV was measured twice per week and also on the final day of study. The study was completed when the mean tumor volume of Vehicle Control reached 1500 mm^3 or up to Day 60, whichever occurred first.
Beginning on Day 0, animals were observed daily and weighed twice weekly using a digital scale; data including individual and mean gram weights, mean percent weight change versus Day 0 (% vD0) were recorded for each group and % vD0 plotted at study completion. […] Treatment resulting in a mean % vD0>20% and/or >10% mortality was considered above the maximum tolerated dose. Maximum mean % vD0 (weight nadir) for each treatment group was reported at study completion.
Inhibition of tumor growth was determined by calculating the percent TGI (100%×[1−(final MTV−initial MTV of a treated group)/(final MTV−initial MTV of the control group)]). Treatment started on Day 0.
Additional endpoints used to evaluate efficacy were: the number of complete responders (CR), partial responders (PR), and tumor-free survivors (TFS). PRs were considered exclusive of CRs, as were TFS.
Statistical analyses of anti-tumor efficacy were performed using one-way ANOVA followed by Dunnett's multiple comparisons test (GraphPad Prism version 8.2.0). Significant p-values=<0.05.
Animals were dosed according to the schedule on Table 7-1. The study was terminated on Day 28.

[1] = CTG-0363, 3 mg/kg IV Q7Dx4, Day 0-28

Structure (SMILES): CC[C@H](C)[C@@H]([C@@H](CC(=O)N1CCC[C@H]1[C@H](OC)[C@@H](C)C(=O)N[C@H](C)[C@@H](O)c1ccccc1)OC)N(C)C(=O)[C@@H](NC(=O)[C@H](C(C)C)N(C)C(=O)OCc1ccc(NC(=O)[C@H](CCCNC(N)=O)NC(=O)[C@@H](NC(=O)CCCC(=O)ON2C(=O)CCC2=O)C(C)C)cc1)C(C)C [BT5528] (X1-V[Cit][PABC][NMeV]V[Dil][Dolaproine]-X2)
- tumor relapse after ceasing the treatment (PC-3 xenograft; 0.5 mg/kg qw or 0.5 mg/kg q2w): obvious tumor relapse after ceasing the treatment
- tumor relapse after ceasing the treatment (PC-3 xenograft; 1.5 mg/kg q2w): tumor relapse after ceasing the treatment
- tumor relapse after ceasing the treatment (PC-3 xenograft; 1.5 mg/kg qw): didn't show any tumor relapse until day 48
- further treatment after relapse (PC-3 xenograft; 1.5 mg/kg qw from day 52 in mice first treated with 0.5 mg/kg qw or q2w): worked well on the tumor regression
- further dosing after relapse (PC-3 xenograft; 1.5 mg/kg qw from day 52 in mice first treated with 1.5 mg/kg q2w): didn't work on complete tumor regression
- T/C (PC-3 xenograft; 0.167 mpk i.v. qw, day 20): 50.2%
- TGI (PC-3 xenograft; 0.167 mpk i.v. qw, day 20): 61.4%
- Tumor volume (PC-3 xenograft; 0.167 mpk i.v. qw, day 20): 1188 mm^3
- T/C (PC-3 xenograft; 0.5 mpk i.v. q2w, day 20): 22.4%
- TGI (PC-3 xenograft; 0.5 mpk i.v. q2w, day 20): 96.0%
- Tumor volume (PC-3 xenograft; 0.5 mpk i.v. q2w, day 20): 530 mm^3
- Tumor volume (PC-3 xenograft; 0.5 mpk i.v. qw, day 0): 451 mm^3
- Tumor volume (PC-3 xenograft; 0.5 mpk i.v. qw, day 2): 622 mm^3
- Tumor volume (PC-3 xenograft; 0.5 mpk i.v. qw, day 4): 519 mm^3
- Tumor volume (PC-3 xenograft; 0.5 mpk i.v. qw, day 6): 460 mm^3
- Tumor volume (PC-3 xenograft; 0.5 mpk i.v. qw, day 8): 398 mm^3
- Tumor volume (PC-3 xenograft; 0.5 mpk i.v. qw, day 10): 329 mm^3
- Tumor volume (PC-3 xenograft; 0.5 mpk i.v. qw, day 13): 260 mm^3
- Tumor volume (PC-3 xenograft; 0.5 mpk i.v. qw, day 15): 249 mm^3
- Tumor volume (PC-3 xenograft; 0.5 mpk i.v. qw, day 17): 231 mm^3
- T/C (PC-3 xenograft; 0.5 mpk i.v. qw, day 20): 9.9%
- TGI (PC-3 xenograft; 0.5 mpk i.v. qw, day 20): 111.4%
- Tumor volume (PC-3 xenograft; 0.5 mpk i.v. qw, day 20): 234 mm^3
- T/C (PC-3 xenograft; 1.5 mpk i.v. q2w, day 20): 5.4%
- TGI (PC-3 xenograft; 1.5 mpk i.v. q2w, day 20): 117.0%
- Tumor volume (PC-3 xenograft; 1.5 mpk i.v. q2w, day 20): 128 mm^3
- Tumor volume (PC-3 xenograft; 1.5 mpk i.v. qw, day 0): 458 mm^3
- Tumor volume (PC-3 xenograft; 1.5 mpk i.v. qw, day 2): 587 mm^3
- Tumor volume (PC-3 xenograft; 1.5 mpk i.v. qw, day 4): 494 mm^3
- Tumor volume (PC-3 xenograft; 1.5 mpk i.v. qw, day 6): 363 mm^3
- Tumor volume (PC-3 xenograft; 1.5 mpk i.v. qw, day 8): 283 mm^3
- Tumor volume (PC-3 xenograft; 1.5 mpk i.v. qw, day 10): 237 mm^3
- Tumor volume (PC-3 xenograft; 1.5 mpk i.v. qw, day 17): 155 mm^3
- T/C (PC-3 xenograft; 1.5 mpk i.v. qw, day 20): 5.5%
- TGI (PC-3 xenograft; 1.5 mpk i.v. qw, day 20): 117.2%
- Tumor volume (PC-3 xenograft; 1.5 mpk i.v. qw, day 20): 131 mm^3
- treatment of relapsed Docetaxel-pretreated mice (PC-3 xenograft; BT5528 1.5 mg/kg qw from day 42): worked well on tumor regression
- measurable tumor regression by day after dosing (PC-3 xenograft; PC-3 xenograft): ≤ 4 days
- efficacy with intermittent dosing (PC-3 xenograft; dosing every 2 weeks): efficacious with intermittent dosing
- mean body weight loss (CTG-0363; 3 mg/kg IV Q7Dx4): no mean body weight loss
- MTV (mean tumor volume) (CTG-0363; 3 mg/kg IV Q7Dx4, Day 28): 1609±18 mm^3
- TGI (CTG-0363; 3 mg/kg IV Q7Dx4, Day 28): 26%
- # CR (complete responders) (CTG-0363; [1]): 0/0/0
- # PR (partial responders) (CTG-0363; [1]): 0/0/0
- # TFS (tumor-free survivors) (CTG-0363; [1]): 0/0/0
- % TGI (CTG-0363; CTG-0363, 3 mg/kg IV Q7Dx4, Day 28): 26%
- Day 28 Tumor Volume Mean TV ± SEM (CTG-0363; CTG-0363, BT5528 3 mg/kg IV Q7Dx4, Day 28, n=2): 1609 ± 18 mm^3
